# Laboratory results from PubChem BioAssay (NCI).
#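 All cell lines were grown in 96-well plates and treated with compound for 48 hours. GI50 marks 50% less growth. The concentration for full growth arrest is given as TGI.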
# Assays:
# Experiment in all cases: growth of human tumour cells (NCI), 48 h
# [1] = test system: NCI-H460 lung
# [2] = test system: M14 melanoma
# [3] = test system: MOLT-4 leukemia
# [4] = test system: PC-3 prostate
# [5] = test system: OVCAR-3 ovarian
# [6] = test system: SF-539 CNS
# [7] = test system: SF-268 CNS
# [8] = test system: OVCAR-8 ovarian
# [9] = test system: BT-549 breast
# [10] = test system: LOX IMVI melanoma
Structure (SMILES),GI50 [1],TGI [1],GI50 [2],TGI [2],GI50 [3],TGI [3],GI50 [4],TGI [4],GI50 [5],TGI [5],GI50 [6],TGI [6],GI50 [7],TGI [7],GI50 [8],TGI [8],GI50 [9],TGI [9],GI50 [10],TGI [10]
CCOc1ccc(NC(=O)Nc2cc(C(C)C)ccc2C)cc1,9.22 µM,> 100 µM,21.9 µM,> 100 µM,9.57 µM,> 100 µM,11.4 µM,> 58 µM,5.33 µM,13.6 µM,4.39 µM,16.6 µM,4.36 µM,14.7 µM,3.67 µM,14.8 µM,1.58 µM,6.24 µM,8.9 µM,> 100 µM
C[C@@H]1O[C@@H](O[C@H]2C[C@@H](O)[C@]3(CO)C4C(CC[C@]3(O)C2)[C@@]2(O)CC[C@H](C3=CC(=O)OC3)[C@@]2(C)C[C@H]4O)[C@H](O)[C@H](O)[C@H]1O (stereo not given in full),0.0133 µM,0.0376 µM,0.0855 µM,0.166 µM,0.0128 µM,0.0314 µM,0.0214 µM,0.113 µM,0.0168 µM,0.0487 µM,0.0185 µM,0.0599 µM,0.0189 µM,0.0642 µM,0.0189 µM,0.0691 µM,0.0186 µM,0.0624 µM,0.0233 µM,0.0882 µM
COc1cc2c(cc1OC)C13CCN4CC5=CCOC(CC(=O)O)C(C5CC41)C3N2 (stereo not given),,> 100 µM,,> 100 µM,,> 100 µM,,> 100 µM,,> 100 µM,,> 100 µM,,> 100 µM,,> 100 µM,,> 100 µM,,> 100 µM
O=C(c1ccccc1)c1ccc(-c2ccc(O)cc2)cc1,4.2 µM,39.3 µM,2.04 µM,> 100 µM,4.28 µM,33.4 µM,9.19 µM,58 µM,7.59 µM,31.6 µM,14.6 µM,56.9 µM,5.85 µM,57.3 µM,12.4 µM,68.9 µM,4.04 µM,31.3 µM,11.1 µM,28.8 µM
Cn1ncc2cc(-c3cnc(N)c(Cl)c3N3CCC4(CCNC4=O)CC3)ccc21,59 µM,> 100 µM,41.4 µM,> 100 µM,20.7 µM,> 100 µM,42.1 µM,> 100 µM,42.9 µM,> 100 µM,14.1 µM,> 100 µM,21.3 µM,> 100 µM,39.1 µM,> 100 µM,29.2 µM,> 100 µM,33.1 µM,> 100 µM
O=C1Nc2ccc(F)c3c(OCCO)cc(-c4ccc[nH]4)c1c23,0.927 µM,5.14 µM,1.4 µM,12.4 µM,1.21 µM,10.3 µM,1.32 µM,10.3 µM,3.59 µM,9.7 µM,2.19 µM,6.12 µM,2.66 µM,6.87 µM,2.76 µM,18.3 µM,3.21 µM,11.6 µM,1.19 µM,5.38 µM
O=S(=O)(c1cccc(C(F)(F)F)c1)N1c2ccccc2-n2cccc2C1c1cccnc1 (stereo not given),,> 51.1 µM,,> 55.8 µM,,> 56.6 µM,,> 52.6 µM,,> 55 µM,,> 60.9 µM,,> 66 µM,,> 100 µM,,> 71.8 µM,,> 68.7 µM
